# Patent US8129417B2, “Substituted octahydrocyclopenta[C]pyrrol-4-amines as calcium channel blockers” (Abbott Laboratories, priority 2008, dated 2012)
# pIC50: −log10 of the molar value.
# Target: human Cav2.2 (Homo sapiens, UniProt Q00975)
# Test: Assessment of calcium channel activity using FLIPR (Ca2+ influx in IMR32 cells)
# Assay type: cell-based
# Conditions: 2 μM nifedipine, depolarized with 80 mM KCl
# Procedure, shortened: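 IMR32 neuroblastoma cells seeded at 1-1.2×10^5 cells/well and grown 48 h at 37 °C before FLIPR Ca2+ influx read. Percent inhibition at each concentration vs no-inhibitor activity; IC50 by non-linear sigmoidal dose-response fit.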
# [1] = 60 minute pre-incubation with compound
# [2] = 3 minute pre-incubation with compound (*)
# human Cav2.2, sequence (Q00975 whole entry): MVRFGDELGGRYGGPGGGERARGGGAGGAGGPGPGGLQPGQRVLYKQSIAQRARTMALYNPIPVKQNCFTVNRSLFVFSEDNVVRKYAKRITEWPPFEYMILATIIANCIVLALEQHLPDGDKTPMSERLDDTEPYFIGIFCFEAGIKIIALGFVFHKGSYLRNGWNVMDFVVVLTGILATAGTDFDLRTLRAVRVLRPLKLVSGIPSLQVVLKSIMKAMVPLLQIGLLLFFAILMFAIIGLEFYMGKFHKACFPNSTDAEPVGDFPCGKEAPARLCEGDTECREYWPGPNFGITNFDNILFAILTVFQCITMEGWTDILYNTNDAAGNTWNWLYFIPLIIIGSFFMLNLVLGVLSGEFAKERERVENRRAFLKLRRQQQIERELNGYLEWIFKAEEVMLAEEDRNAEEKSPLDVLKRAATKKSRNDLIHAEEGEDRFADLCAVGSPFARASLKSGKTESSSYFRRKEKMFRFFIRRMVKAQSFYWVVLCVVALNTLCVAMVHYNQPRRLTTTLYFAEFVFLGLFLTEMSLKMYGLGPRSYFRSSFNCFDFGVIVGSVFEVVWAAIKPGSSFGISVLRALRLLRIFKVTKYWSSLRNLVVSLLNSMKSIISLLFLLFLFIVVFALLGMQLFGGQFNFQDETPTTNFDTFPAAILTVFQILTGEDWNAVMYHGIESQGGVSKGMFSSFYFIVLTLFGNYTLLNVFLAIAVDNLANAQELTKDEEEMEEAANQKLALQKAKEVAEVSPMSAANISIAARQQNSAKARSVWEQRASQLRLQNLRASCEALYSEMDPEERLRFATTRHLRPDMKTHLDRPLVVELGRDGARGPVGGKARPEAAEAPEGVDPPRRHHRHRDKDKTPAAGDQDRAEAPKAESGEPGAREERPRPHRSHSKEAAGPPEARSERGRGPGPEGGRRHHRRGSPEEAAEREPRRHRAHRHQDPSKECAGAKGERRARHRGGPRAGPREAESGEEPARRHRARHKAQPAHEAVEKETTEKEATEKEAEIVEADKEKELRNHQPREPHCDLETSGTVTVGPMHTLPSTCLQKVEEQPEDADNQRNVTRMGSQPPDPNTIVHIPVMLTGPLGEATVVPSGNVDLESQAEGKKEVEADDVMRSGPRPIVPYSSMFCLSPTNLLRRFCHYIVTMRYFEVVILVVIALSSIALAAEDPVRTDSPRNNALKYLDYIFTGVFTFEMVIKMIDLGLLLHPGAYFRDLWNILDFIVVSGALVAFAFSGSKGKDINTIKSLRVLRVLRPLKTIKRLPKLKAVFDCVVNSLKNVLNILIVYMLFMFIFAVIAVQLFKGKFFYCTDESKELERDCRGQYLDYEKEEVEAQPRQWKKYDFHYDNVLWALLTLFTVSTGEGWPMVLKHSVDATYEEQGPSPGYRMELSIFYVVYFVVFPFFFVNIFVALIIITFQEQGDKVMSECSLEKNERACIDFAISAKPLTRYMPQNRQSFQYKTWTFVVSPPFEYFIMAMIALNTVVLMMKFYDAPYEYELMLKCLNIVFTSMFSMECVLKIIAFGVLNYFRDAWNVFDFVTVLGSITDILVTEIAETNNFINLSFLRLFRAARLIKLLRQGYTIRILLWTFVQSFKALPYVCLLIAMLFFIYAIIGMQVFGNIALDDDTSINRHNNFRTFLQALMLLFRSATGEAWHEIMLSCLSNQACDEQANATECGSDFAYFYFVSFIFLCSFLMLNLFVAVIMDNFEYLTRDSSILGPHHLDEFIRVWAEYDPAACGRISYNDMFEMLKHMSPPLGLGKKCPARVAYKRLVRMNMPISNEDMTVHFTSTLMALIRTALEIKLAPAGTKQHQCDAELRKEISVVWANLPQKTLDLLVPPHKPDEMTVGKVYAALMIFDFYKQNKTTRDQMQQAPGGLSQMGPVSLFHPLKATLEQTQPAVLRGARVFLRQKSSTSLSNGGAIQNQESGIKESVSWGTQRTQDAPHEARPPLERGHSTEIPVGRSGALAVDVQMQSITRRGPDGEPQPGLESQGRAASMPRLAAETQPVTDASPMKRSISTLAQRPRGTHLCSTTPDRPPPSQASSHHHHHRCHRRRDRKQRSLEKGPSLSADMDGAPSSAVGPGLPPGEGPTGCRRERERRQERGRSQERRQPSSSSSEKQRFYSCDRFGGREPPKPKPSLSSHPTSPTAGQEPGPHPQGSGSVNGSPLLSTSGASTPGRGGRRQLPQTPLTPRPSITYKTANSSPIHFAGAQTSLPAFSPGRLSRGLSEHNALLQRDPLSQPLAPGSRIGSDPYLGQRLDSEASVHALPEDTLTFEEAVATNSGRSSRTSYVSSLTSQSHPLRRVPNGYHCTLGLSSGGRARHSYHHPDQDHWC
# human Cav2.2, sequence (P54289 25-946 partner limits assumed): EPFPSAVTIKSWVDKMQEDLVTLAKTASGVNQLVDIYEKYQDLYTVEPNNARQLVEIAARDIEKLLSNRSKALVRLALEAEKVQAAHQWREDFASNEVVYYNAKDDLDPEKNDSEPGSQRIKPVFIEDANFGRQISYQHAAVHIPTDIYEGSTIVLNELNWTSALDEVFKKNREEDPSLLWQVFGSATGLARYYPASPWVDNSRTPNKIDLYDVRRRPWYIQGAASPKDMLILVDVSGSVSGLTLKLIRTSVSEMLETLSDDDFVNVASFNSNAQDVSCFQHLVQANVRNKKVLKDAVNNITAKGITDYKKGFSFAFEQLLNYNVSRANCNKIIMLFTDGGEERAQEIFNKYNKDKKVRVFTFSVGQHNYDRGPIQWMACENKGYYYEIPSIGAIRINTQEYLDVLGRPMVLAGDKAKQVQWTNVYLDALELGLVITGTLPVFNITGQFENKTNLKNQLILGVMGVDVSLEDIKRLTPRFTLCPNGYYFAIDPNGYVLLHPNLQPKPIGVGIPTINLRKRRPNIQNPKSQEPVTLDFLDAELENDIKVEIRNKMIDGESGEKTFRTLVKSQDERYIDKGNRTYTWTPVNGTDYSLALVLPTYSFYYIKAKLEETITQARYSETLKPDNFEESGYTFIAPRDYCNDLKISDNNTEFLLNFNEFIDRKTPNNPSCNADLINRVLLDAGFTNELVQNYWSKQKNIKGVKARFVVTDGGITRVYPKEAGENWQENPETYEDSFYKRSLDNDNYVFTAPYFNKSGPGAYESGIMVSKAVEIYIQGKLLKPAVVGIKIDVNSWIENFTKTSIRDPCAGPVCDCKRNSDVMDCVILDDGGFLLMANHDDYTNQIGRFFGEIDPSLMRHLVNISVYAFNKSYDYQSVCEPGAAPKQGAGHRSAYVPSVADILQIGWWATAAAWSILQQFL
# human Cav2.2, sequence (P54289 947-1103 partner limits assumed): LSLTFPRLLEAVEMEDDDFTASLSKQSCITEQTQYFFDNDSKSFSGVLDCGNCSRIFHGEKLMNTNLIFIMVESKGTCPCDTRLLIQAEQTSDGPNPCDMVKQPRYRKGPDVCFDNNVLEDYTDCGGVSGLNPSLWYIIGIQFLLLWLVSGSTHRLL
# human Cav2.2, sequence (P54284 whole entry partner): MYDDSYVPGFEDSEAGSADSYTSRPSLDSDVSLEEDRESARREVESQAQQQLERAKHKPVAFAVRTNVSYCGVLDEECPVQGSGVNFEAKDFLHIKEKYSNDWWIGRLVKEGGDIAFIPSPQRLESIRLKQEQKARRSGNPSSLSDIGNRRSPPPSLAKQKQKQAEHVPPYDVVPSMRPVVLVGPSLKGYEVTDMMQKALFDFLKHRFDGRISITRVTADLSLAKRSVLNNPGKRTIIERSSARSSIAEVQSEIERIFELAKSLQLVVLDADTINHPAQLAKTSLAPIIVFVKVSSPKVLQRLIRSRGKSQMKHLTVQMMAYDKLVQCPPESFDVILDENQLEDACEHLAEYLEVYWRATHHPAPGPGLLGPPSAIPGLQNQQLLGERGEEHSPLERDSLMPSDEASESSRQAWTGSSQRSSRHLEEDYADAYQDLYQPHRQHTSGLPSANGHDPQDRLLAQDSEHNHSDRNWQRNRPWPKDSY
pIC50 [1],pIC50 [2],SMILES
5.82,,"O=C(N[C@H]1CC[C@H]2CN(Cc3ccccc3C(F)(F)F)C[C@H]21)C(C1CCCCC1)C1CCCCC1 [Example 60, 2,2-dicyclohexyl-N-{(3aS,4S,6aR)-2-[2-(trifluoromethyl)benzyl]octahydrocyclopenta[c]pyrrol-4-yl}acetamide]"
5.63,,"FC(F)(F)c1cccc(CN2C[C@H]3CC[C@H](NC(c4ccccc4)c4ccccc4)[C@H]3C2)c1 [Example 466, (3aR,4S,6aS)—N-benzhydryl-2-[3-(trifluoromethyl)benzyl]octahydrocyclopenta[c]pyrrol-4-amine]"
,5.74,"O=C(N[C@H]1CC[C@H]2CN(Cc3ccccc3)C[C@H]21)C1(c2ccccc2)CCCCC1 (relative stereo) [Example 9, N-[(3aS*,4S*,6aR*)-2-benzyloctahydrocyclopenta[c]pyrrol-4-yl]-1-phenylcyclohexanecarboxamide]"
,5.25,"CC(C)(C)C(Cc1ccccc1)C(=O)N[C@@H]1CC[C@H]2CN(Cc3ccccc3)C[C@H]21 (stereo partly drawn) [Example 29, 2-benzyl-N-[(3aS,4R,6aR)-2-benzyloctahydrocyclopenta[c]pyrrol-4-yl]-3,3-dimethylbutanamide]"
6.31,,"CCC[C@H](NC(C)C)C(=O)N[C@H]1CC[C@@H]2CN(S(=O)(=O)c3cccc(C(F)(F)F)c3)C[C@@H]21 [Example 483, N^2-isopropyl-N^1-((3aR,4S,6aS)-2-{[3-(trifluoromethyl)phenyl]sulfonyl}octahydrocyclopenta[c]pyrrol-4-yl)-L-norvalinamide]"
5.88,,"CN[C@@H](CC(C)(C)C)C(=O)N[C@@H]1CC[C@H]2CN(S(=O)(=O)c3cccc(C(F)(F)F)c3)C[C@H]21 [Example 416, N^2,4-dimethyl-N^1-((3aS,4R,6aR)-2-{[3-(trifluoromethyl)phenyl]sulfonyl}octahydrocyclopenta[c]pyrrol-4-yl)-L-leucinamide]"
5.73,,"N[C@@H](Cc1ccccc1)C(=O)N[C@H]1CC[C@@H]2CN(S(=O)(=O)c3cccc(C(F)(F)F)c3)C[C@@H]21 [Example 385, N-((3aR,4S,6aS)-2-{[3-(trifluoromethyl)phenyl]sulfonyl}octahydrocyclopenta[c]pyrrol-4-yl)-L-phenylalaninamide]"
6.55,,"CC(C)(C)C[C@H](NC(=O)OC(C)(C)C)C(=O)N[C@H]1CC[C@@H]2CN(c3cccc(C(F)(F)F)n3)C[C@@H]21 [Example 264, tert-butyl(S)-4,4-dimethyl-1-oxo-1-((3aR,4S,6aS)-2-(6-(trifluoromethyl)pyridin-2-yl)octahydrocyclopenta[c]pyrrol-4-ylamino)pentan-2-ylcarbamate]"
5.39,,"CC(C)(C)C[C@H](NC(=O)OC(C)(C)C)C(=O)N[C@H]1CC[C@@H]2CN(Cc3ccccc3)C[C@@H]21 [Example 226, tert-butyl(S)-1-((3aR,4S,6aS)-2-benzyloctahydrocyclopenta[c]pyrrol-4-ylamino)-4,4-dimethyl-1-oxopentan-2-ylcarbamate]"
5.30,,"CC(C)(C)[C@H](N)C(=O)N[C@@H]1CC[C@H]2CN(S(=O)(=O)c3ccc(C(F)(F)F)cc3)C[C@H]21 [Example 409, 3-methyl-N^1-((3aS,4R,6aR)-2-{[4-(trifluoromethyl)phenyl]sulfonyl}octahydrocyclopenta[c]pyrrol-4-yl)-L-valinamide]"
5.54,,"CC(C)C[C@H](NS(=O)(=O)C(C)C)C(=O)N[C@@H]1CC[C@H]2CN(Cc3cccc(C(F)(F)F)c3)C[C@H]21 [Example 522, N^2-(isopropylsulfonyl)-N^1-{(3aS,4R,6aR)-2-[3-(trifluoromethyl)benzyl]octahydrocyclopenta[c]pyrrol-4-yl}-L-leucinamide]"
6.36,,"CC(C)C[C@@H](C(=O)N[C@@H]1CC[C@H]2CN(S(=O)(=O)c3cccc(C(F)(F)F)c3)C[C@H]21)N1CCCCC1 [Example 321, (2S)-4-methyl-2-piperidin-1-yl-N-((3aS,4R,6aR)-2-{[3-(trifluoromethyl)phenyl]sulfonyl}octahydrocyclopenta[c]pyrrol-4-yl)pentanamide]"
